The values below come from a melting point compilation (Tetko et al.; mined from patent text by program, amines drawn as free bases though some values may be those of a salt).

Molecules are shown by their SMILES.

Usually melting point stands for the temperature, or range, at which the solid turns liquid. `CCCc1nc2c(N)nc(C)c(C)c2n1CCCS(=O)(=O)c1ccc(Cl)cc1` registered a melting point of 186 to 188 °C. In the case of `CCOC(C)=C(C#N)C(=O)c1ccc(F)cc1` it was 77 °C. The figure for `c1ccc2c(c1)Sc1ccccc1N2c1ccc(-n2ccnc2-c2nccn2-c2ccc(N3c4ccccc4Sc4ccccc43)cc2)cc1` is 227 to 232 °C. For `N=c1n(Cc2ccc(F)c(F)c2)c2ccc(Br)cc2n1Cc1ccc(F)c(F)c1`, the melting point was in the range of 88 to 89.5 °C. The figure for `COC(=O)c1cc(C(=O)NCC(C)C)c2cc(Cc3ccc(F)cc3)cnc2c1O` is 178 to 179 °C. The figure for `CC(C)(C)N(Cc1ccccc1)CC(O)c1cc(OCc2ccccc2)cc(OCc2ccccc2)c1` (stereo unspecified) is 78 to 79 °C. In the case of `Nc1nc(C2CCN(C(=O)c3ccccc3)CC2)c2ccccc2n1` it was 138 °C; in that of `O=P(O)(O)c1cccc(OCc2ccc3ccccc3c2)c1`, 131 to 134 °C.

Regarding `NC1=NN(c2ccccc2)C(c2ccc(Cl)c(Cl)c2)C1` (stereo unspecified), the melting point was in the range of 150 to 152 °C. In the case of `CCOC(=O)c1c(N2CCN(C(=O)c3cccs3)CC2)c2cc(Cl)cnc2n(CC(=O)c2ccccc2)c1=O` it was 227 °C.

In the case of `C=C1[C@H](C(=O)OC)[C@H]1C(=O)OC`, the melting point lay within 34.1 to 34.9 °C. The figure for `CCCCc1nnc2n1-c1sc3c(c1C(c1ccccc1Cl)=NC2)CCNC3` is 224 °C. With `Nc1nccc2ccc(OS(=O)(=O)C(F)(F)F)cc12`, the melting point was in the range of 115 to 118 °C. The figure for `c1ccc(CCN2CCN(c3n[nH]c4c3Cc3ccccc3-4)CC2)cc1` is 212 to 214 °C; for `c1ccc2sc(=NCCN3CCOCC3)sc2c1` it is 75 to 76 °C; for `O=C(c1c(Cl)cccc1Cl)P(=O)(C(=O)c1c(Cl)cccc1Cl)c1ccccc1` it is 194 °C. In the case of `C=CCOc1ccc(CCNC(=O)NC)cc1OC` it was 81 to 83 °C; in that of `C[Si](C)(CCCSCCCNC(=O)n1cc(F)c(=O)[nH]c1=O)c1ccccc1`, 51 to 52 °C.

Consider `COc1cc(OC)cc(OCCCCCN2CCC(CNC(=O)c3cc(Cl)c(N)cc3OC)CC2)c1`, for which the melting point fell in the range of 112 to 113 °C.

For the molecule `C[C@@H]1Cc2ccsc2[C@H](C)N1CCNS(=O)(=O)c1ccc(N)cc1` (relative stereo), the melting point was 126 to 131 °C.

In turn, `O=C1NCC(Cc2ccc3c(c2)OCO3)O1` (stereo unspecified) yielded a melting point of 98.5 to 100 °C. `COc1ccc2c(-c3ccccc3F)csc2c1Cl` returned a melting point of 136 to 137 °C. The figure for `CCOC(=O)NC(=O)C(C#N)=CNc1c(C)cccc1C` is 138 to 140 °C. In the case of `O=C(O)C(=Cc1cccnc1)c1ccc(Cl)cc1Cl` it was 208 to 211 °C. In the case of `Cc1oc(-c2ccccc2)nc1COc1ccc(COc2nn(Cc3ccccc3)cc2CC(=O)O)cn1`, the melting point was 87 to 88 °C.

`Cc1cccc(C(=O)N(NC(C)C)C(C)(C)C)c1` returned a melting point of 107 to 109 °C. In the case of `c1ccc(C2(Oc3ccccn3)CCNCC2)cc1` it was 86 to 87 °C; in that of `O=C(O)[C@@H]1C[C@@H](SC(c2ccccc2)(c2ccccc2)c2ccccc2)CN1S(=O)(=O)c1ccc2ccccc2c1`, 64 to 69 °C. For the molecule `CCCc1cc2c(cc1O)CCO2`, the melting point lay within 73 to 74 °C. For `O=C(O)c1ccccc1Nc1ccc(I)cc1`, the melting point is 205 to 206 °C. In the case of `COC(=O)C1=C(C)NC(C)=C(C(=O)OC(C)C)C1c1cc([N+](=O)[O-])ccc1Cl` (stereo unspecified) it was 163 °C; in that of `O=C(CCCCC1CCSS1)NC(Cc1c[nH]cn1)C(=O)O` (stereo unspecified), 122 to 126 °C. In the case of `CN(C(=O)c1nn(-c2ccc(Cl)cc2Cl)c(-c2ccc(Cl)cc2)c1F)N1CCCCC1` it was 184 °C; in that of `Cc1ccc2nc(N)nc(N)c2c1-c1cc(C(F)(F)F)cc(C(F)(F)F)c1`, 222 to 225 °C.

Take `CCOC(=O)COc1cccc2c1OCC(Br)C2=O` (stereo unspecified): the melting point lay in the range of 92 to 93 °C. In the case of `CCCN1CC(c2cccc(F)c2)=C(c2ccc(S(N)(=O)=O)cc2)C1=O` it was 188 to 190 °C. On to `Clc1ccc(-c2cc3nccc(C4CC4)n3n2)cc1`, for which the melting point is 137 to 138 °C. In the case of `COc1ccc(C2SC(=O)NC2=O)cc1C(=O)NCc1ccc(C(F)(F)F)cc1` (stereo unspecified) it was 168 to 169 °C; in that of `COc1ccc(Oc2c(N)cc(C(=O)O)cc2S(N)(=O)=O)cc1`, 260 to 261 °C. In the case of `CC(=O)N(C)CC(C)c1ccncc1` (stereo unspecified) it was 83 to 88 °C; in that of `Nc1nc(N)nc(-c2ccc(C(O)c3ccccc3)cc2)n1` (racemic), 214 to 216 °C; in that of `Cc1cc(-c2ccccc2)nn2cnnc12`, 150 to 151 °C. In the case of `N#Cc1cc(C(=O)c2ccccc2)ccc1O` it was 185 to 186 °C; in that of `CC1CN(c2cccc(Cl)n2)N=C1N` (stereo unspecified), 175 to 176 °C; in that of `Cc1ccc(N)c(C)c1CO`, 85 °C. The molecule `CS(=O)(=O)c1cc(C(N)Nc2ccccc2C(=O)Nc2cccc(C(F)(F)F)c2)ccn1` (stereo unspecified) came in with a melting point of 214 °C. The figure for `CCCCCCCCC1C=CC(CCc2ccc(C(=O)O)o2)=C2N=C3CCCCC3=C21` (stereo unspecified) is 110 to 111 °C; for `CCNC(=O)c1ccc(C=C(C)c2ccc3c(c2)C(C)(C)CCO3)cc1` it is 161 to 163 °C; for `C[C@@H]1N[C@@H](c2ccc(C#N)cc2)[C@H]2C(=O)N(Cc3ccccc3)C(=O)[C@H]21` (racemic) it is 169 to 170 °C. The figure for `CC1C(=NCCCN(C)C)c2c([nH]c3ccc(Cl)cc3c2=O)CC1c1ccc(C(F)(F)F)cc1` (stereo unspecified) is 169 to 170 °C. The figure for `CC(C)(C)OC(=O)c1nc2ccc(NCCCN3CCC(OC(c4ccccc4)c4ccccc4)CC3)nn2n1` is 133 to 135 °C; for `CCOC(=O)C(=CNCc1cnsn1)C(=O)c1cc(F)c(F)cc1F` it is 168 to 170 °C; for `CC(C)(C)OC(=O)NCCCCCN(OCc1ccccc1)C(=O)CCC(=O)O` it is 93 to 94 °C. `COCOCc1nc2nc(O)cnc2c(=O)[nH]1` displayed a melting point of 224 to 226 °C. The figure for `CCOC(=O)C1=C(c2ccc(-n3c(C)nc4cnccc43)cc2)NC(C)=C(C(=O)Nc2ccccn2)C1c1ccccc1Cl` (stereo unspecified) is 226 to 228 °C.

`CCC(CC)Nc1c([N+](=O)[O-])cc(C)c(COC(=O)COc2ccc(Cl)cc2Cl)c1[N+](=O)[O-]` displayed a melting point of 103 to 106 °C. In the case of `CON=C(C(=O)O)c1nc(NC=O)c(Cl)cc1Cl` it was 164 to 165 °C; in that of `CN1CC=C(c2c[nH]c3ccc(CCNS(C)(=O)=O)cc23)CC1`, 170 to 172 °C; in that of `CS(=O)(=O)Nc1cc([C@@H](O)CNC2CCN(c3ccc(S(=O)(=O)N4CC(=O)NC4=O)cc3)CC2)ccc1O`, 200 to 202 °C.

In turn, `CC(C)(C)OC(=O)N1CCC(Nc2cccc(NC(=O)c3ccc(F)cc3Cl)n2)CC1` had a melting point of 82 °C. In the case of `CCC(C)NC(=O)Nc1cc(-c2c(-c3ccc(F)c(C)c3)nc3cccnn23)ccn1` (stereo unspecified) it was 196 to 197 °C; in that of `O=C(Nc1cc(Cl)ccc1OCc1nnn[nH]1)c1cc(-c2ccc(Cl)cc2)oc1C(F)(F)F`, 227 to 236 °C; in that of `CC(C)n1cnc2c(N[C@H](CO)c3ccccc3)nc(Cl)nc21`, 150 to 152 °C. The figure for `CCCc1nc2c(N)nc3cc(OCCC4CCN(C(=O)OC(C)(C)C)CC4)ccc3c2n1CC(C)C` is 196 to 200 °C; for `CC(=O)N1CC(=O)NC(=O)N1Cc1ccc(Cl)cc1` it is 97 °C. Molecule `O=[N+]([O-])c1ccc(-c2cc(O)ccc2-c2ncnc(-c3ccccc3)n2)cc1` gave a melting point of 238 to 240 °C.

The molecule `Cc1cccc(Cl)c1NC(=S)Nc1c(C)nn(C)c1C` came in with a melting point of 201 to 202 °C. In the case of `COc1cc(Br)c(O)c(C=O)c1` it was 107 to 110 °C; in that of `CN(C(=O)OC(C)(C)C)c1cc(Oc2ccc(Oc3ccccc3)cc2)ccc1N`, 105 to 106 °C; in that of `O=[N+]([O-])c1cccc2nn(-c3ccccc3)nc12`, 155 to 156 °C.

With `CC(=NO)c1c(C#N)nn(-c2c(Cl)cc(C(F)(F)F)cc2Cl)c1N`, the melting point lay in the range of 105 to 110 °C.

Consider `Cc1cc(C2=NNC(C)(C#N)Cc3cc4c(cc32)OCO4)ccc1[N+](=O)[O-]` (stereo unspecified), for which the melting point was in the range of 148 to 151 °C. The figure for `CC(C)C1(C)N=C(c2nc3occc3cc2C(=O)O)NC1=O` (stereo unspecified) is 237 to 244 °C.

For `CCCCN1CCCC1Cc1cccc(NC(N)=O)c1` (stereo unspecified), the melting point lay within 80 to 83 °C.

In the case of `CCC(=O)N1CCc2cc(O)c(OC)cc2C1`, the melting point lay within 116 to 118 °C. In the case of `CC(=O)Nc1ccc2nc(-c3ccccc3)cc(OCC(=O)N3CCOCC3)c2c1` it was 261 °C. Molecule `Cc1cccc(C(=O)Nc2nc(-c3ccccc3)c(-c3ccc(=O)n(C(C)C)n3)s2)c1` came in with a melting point of 198 to 199 °C. The molecule `Nc1noc(-c2ccc(C(F)(F)F)cc2)c1Cl` displayed a melting point of 115 to 118 °C. The figure for `CCOC(=O)c1cn(CCBr)c2nc(N3CCN(C(C)=O)CC3)ncc2c1=O` is 202 to 204 °C. The figure for `Cc1c(-c2ccccc2)oc2c(S(=O)CCCCCl)cccc2c1=O` (stereo unspecified) is 124 to 125 °C. The figure for `O=C1CCC(N2Cc3c(OCc4ccc(CN5CC6CCC(C5)O6)cc4)cccc3C2=O)C(=O)N1` (stereo unspecified) is 228 to 230 °C. In turn, `Cn1nc(Sc2ccc(C(=O)OCC(C)(C)C)c(Cl)c2)n(C)c1=O` yielded a melting point of 101 °C. In the case of `Cc1c(F)c(N2CCNCC2)c(Cl)c2c1c(=O)c(C(=O)O)cn2C1CC1` it was 234 to 235 °C; in that of `COc1ccc(-n2nnnc2C(F)(F)F)cc1[C@H]1CO[C@]2(CCCN(Cc3nc(=O)[nH][nH]3)[C@H]2c2ccccc2)C1`, 186 to 187 °C; in that of `O=C1CCC(C(=O)N2CCN(C(=O)CN3CCOCC3)CC2)N1` (stereo unspecified), 204 to 205 °C. In the case of `CN1c2ccccc2C(c2ccccc2F)=Nc2cccnc21` it was 140 to 142 °C.
